pEC50, pIC50: −log10 of the molar value.

Experiment [1] relates to T-47D. The experiment in a line: Cell proliferation assay (GI50). Format: cell-based, Human. The following applies: 48 h. The protocol:
(§1) T-47D and ZR-75-1 cells were grown and harvested as in Example 43. An aliquot of 90 μl of cells (2.2×10^4 cells/ml) was added to a well of a 96-well microtiter plate containing 10 μl of a 10% DMSO in RPMI-1640 media solution containing 1 nM to 100 μM of N′-(2-phenoxypyridine-3-carbonyl)-3-(trifluoromethyl)benzhydrazide (0.1 nM to 10 μM final). An aliquot of 90 μl of cells was added to a well of a 96-well microtiter plate containing 10 μl of a 10% DMSO in RPMI-1640 media solution without compound as the control sample for maximal cell proliferation (AMax). The samples were mixed by agitation and then incubated at 37° C. for 48 h in a 5% CO2-95% humidity incubator. After incubation, the samples were removed from the incubator and 20 μl of CellTiter 96 AQUEOUS One Solution Cell Proliferation™ reagent (Promega) was added. The samples were mixed by agitation and incubated at 37° C. for 2-4 h in a 5% CO2-95% humidity incubator. Using an absorbance plate reader (Model 1420 Wallac Instruments), an initial reading (T=0) was made approximately 1-2 min after addition of the solution, employing absorbance at 490 nm. This determines the possible background absorbance of the test compounds. No absorbance for N′-(2-phenoxypyridine-3-carbonyl)-3-(trifluoromethyl)benzhydrazide was found at 490 nm. After the 2-4 h incubation, the samples were read for absorbance as above (ATest).
(§2) Baseline for GI50 (dose for 50% inhibition of cell proliferation) of initial cell numbers were determined by adding an aliquot of 90 μl of cells or 90 μl of media, respectively, to wells of a 96-well microtiter plate containing 10 μl of a 10% DMSO in RPMI-1640 media solution. The samples were mixed by agitation and then incubated at 37° C. for 0.5 h in a 5% CO2-95% humidity incubator. After incubation, the samples were removed from the incubator and 20 μl of CellTiter 96 AQUEOUS One Solution Cell Proliferation™ reagent (Promega) was added. The samples were mixed by agitation and incubated at 37° C. for 2-4 h in a 5% CO2-95% humidity incubator. Absorbance was read as above, (AStart) defining absorbance for initial cell number used as baseline in GI50 determinations.
(§3) GI50 (dose for 50% inhibition of cell proliferation) is the concentration where [(ATest−AStart)/(AMax−AStart)]=0.5
(§4) T-47D, ZR-75-l, MX-1, SK-Br-3, MCF-7, Panc-1, K562 and PC-3 cells were grown according to the conditions recommended by American Type Culture Collection. SW620 and NCI-H23 were grown according to the conditions provided by National Cancer Institute. The cell proliferation assay and the calculations of GI50 were performed as in Example 21 (Tables III and IV).

Experiment [2] relates to T-47D. Nature of the experiment: Caspase cascade activation assay (fluorogenic DEVD substrate). Format: cell-based, Human. The following applies: 48 h; for Caspase activity Ratio: ratio of net RFU of test compound to control; for pEC50: Homo sapiens, T47D, read-out: Caspase potency EC50. As for the experimental part:
(§5) Human breast cancer cell lines T-47D and ZR-75-1 were grown according to media component mixtures designated by American Type Culture Collection+10% FCS (Invitrogen Corporation), in a 5% CO2-95% humidity incubator at 37° C. T-47D and ZR-75-1 cells were maintained at a cell density between 50 and 80% confluency at a cell density of 0.1 to 0.6×10^6 cells/ml. Cells were harvested at 600×g and resuspended at 0.65×10^6 cells/ml into appropriate media+10% FCS. An aliquot of […] of cells was added to a well of a 96-well microtiter plate containing 2.5 μl of a 10% DMSO in RPMI-1640 media solution containing 0.16 to 100 μM of N′-(2-phenoxypyridine-3-carbonyl)-3-(trifluoromethyl)benzhydrazide (Example 1) or other test compound (0.016 to 10 μM final). An aliquot of 22.5 μl of cells was added to a well of a 384-well microtiter plate containing 2.5 μl of a 10% DMSO in RPMI-1640 media solution without test compound as the control sample. The samples were mixed by agitation and then incubated at 37° C. for 48 h in a 5% CO2-95% humidity incubator. After incubation, the samples were removed from the incubator and 25 μl of a solution containing 14 μM of N-(Ac-DEVD)-N′-ethoxycarbonyl-R110 (SEQ ID No:1) fluorogenic substrate (Cytovia, Inc.; WO99/18856), 20% sucrose (Sigma), 20 mM DTT (Sigma), 200 mM NaCl (Sigma), 40 mM Na PIPES buffer pH 7.2 (Sigma), and 500 μg/ml lysolecithin (Calbiochem) was added. The samples were mixed by agitation and incubated at room temperature. Using a fluorescent plate reader (Model SpectraMax Gemini, Molecular Devices), an initial reading (T=0) was made approximately 1-2 min after addition of the substrate solution, employing excitation at 485 nm and emission at 530 nm, to determine the background fluorescence of the control sample. After the 3 h incubation, the samples were read for fluorescence as above (T=3 h).
(§6) The Relative Fluorescence Unit values (RFU) were used to calculate the sample readings as follows:
(§7) RFU(T=3 h)−Control RFU(T=0)=Net RFU(T=3 h)
(§8) The activity of caspase cascade activation was determined by the ratio of the net RFU value for N′-(2-phenoxypyridine-3-carbonyl)-3-(trifluoromethyl)benzhydrazide (Example 1) or other test compound to that of control samples. The EC50 (nM) was determined by a sigmoidal dose-response calculation (Prism 2.0, GraphPad Software Inc.).

Experiment [3] relates to ZR-75-1. The description is as above. It counts as cell-based, Human. The following applies: 48 h; for Caspase activity Ratio: ratio of net RFU of test compound to control. The protocol:
as §5, §6, §7, §8

A further experiment relates to T47D cells. The experiment in a line: Clonogenic survival assay. Format: cell-based. Particulars: Homo sapiens, 48 h treatment, read-out: IC50 of inhibition of clonogenic survival. The protocol:
(§9) T47D and MX-1 cells were grown according to the conditions recommended by American Type Culture Collection. In a well of a 96 well plate, 30,000 cells were seeded and treated with compound at the indicated concentrations for 48 hr in a 5% CO2-95% humidity incubator at 37° C. Control wells were treated with the same amount of solvent (DMSO) as the compound samples. After the indicated treatment time, the supernatant was removed to a sterile culture tube and the wells washed with phosphate buffered saline, and the adherent cells trypsinized for 5 min. The trypsinzed cells were added to the culture supernatant, cells were collected (1,200 rpm, 10 min), washed with phosphate buffered saline, and resupended in fresh media. The cells were counted for trypan blue negative cells, and the cells diluted with fresh media to 1,000 cells/ml. To a well of a 24-well plate, 0.1 ml of the cell suspension was added along with 1 ml of fresh media (cell suspensions were passed through a 22 G needle several times just before plating to form single cell suspensions). Plates are incubated in a 5% CO2-95% humidity incubator at 37° C. for 7-10 days. Colonies are counted when the sizes reached greater than 50 cells per colony. […] Colonies are rinsed with water and the colonies counted and the fraction surviving expressed as the percentage of the number of control colonies.

In another experiment the test system is MX-1 cells. Nature of the experiment: Clonogenic survival assay. Format: cell-based. The following applies: Homo sapiens, MX1, 48 h treatment, read-out: IC50 of inhibition of clonogenic survival. As for the experimental part:
as §9

The subject of a further experiment is T-47D cells. The experiment in a line: Cell cycle arrest by propidium iodide flow cytometry. Format: cell-based, Human. Particulars: 1 μM, 24 h. As for the experimental part:
T-47D, a breast cancer cell line, was maintained and harvested as described in Example 43. 5×10^5 Cells were treated with 1 μM of N′-(2-phenoxypyridine-3-carbonyl)-3-(trifluoromethyl)benzhydrazide for 24 h at 37° C. As a control, cells were also incubated with equivalent amount of solvent (DMSO). Cells were harvested at 1,200 rpm and then transferred to 12×75 mm polystyrene tubes. Cells were then resuspended in 500 μl of 1% Na Citrate, 0.1% Triton X-100, and 50 μg/ml of propidium iodide and incubated at room temperature for 30 min followed by flow cytometer analysis. All flow cytometry analyses were performed on FACScalibur (Becton Dickinson) using Cell Quest analysis software. The x-axis plotted the amount of fluorescence and the y-axis is plotted the number of cells with the indicated fluorescence. The T-47D control cell population profile is seen in FIG. 1A and the increase in G2/M (M4) DNA content cells that were treated with N′-(2-phenoxypyridine-3-carbonyl)-3-(trifluoromethyl)benzhydrazide is seen in FIG. 1B.
In general terms: A flow cytometer gives signals particle by particle.

The subject of experiment [4] is breast and non-breast cancer cells. The experiment in a line: Cell proliferation assay, breast versus non-breast cancer cell lines. The following applies: conclusion from Tables III and IV. Format: cell-based. As for the experimental part:
as §1
as §2, with “Absorbance was read as above, (AStart) defining absorbance for initial cell number used as baseline in GI50 determinations.” left out

A further experiment deals with MCF-7. Nature of the experiment: Cell proliferation assay (GI50). It counts as cell-based. Particulars: Homo sapiens, MCF7. As for the experimental part:
as §1, §2, §3, §4

A further experiment has as its system SK-Br-3. Nature of the experiment: Cell proliferation assay (GI50). It counts as cell-based. The following applies: Homo sapiens. The protocol: as §1, §2, §3, §4
A further experiment concerns K562. Nature of the experiment: Cell proliferation assay (GI50). It counts as cell-based. The following applies: Homo sapiens. As for the experimental part: as §1, §2, §3, §4
Another experiment has as its system PC-3. Nature of the experiment: Cell proliferation assay (GI50). It counts as cell-based. Particulars: Homo sapiens. As for the experimental part:
as §1, §2, §3, §4

The test system of another experiment is SW-620. The experiment in a line: Cell proliferation assay (GI50). Format: cell-based. The following applies: Homo sapiens. As for the experimental part: as §1, §2, §3, §4
The test system of a further experiment is MX-1. Nature of the experiment: Cell proliferation assay (GI50). It counts as cell-based. Particulars: Homo sapiens, MX1. As for the experimental part: as §1, §2, §3, §4
A further experiment deals with Panc-1. Nature of the experiment: Cell proliferation assay (GI50). Format: cell-based. Particulars: Homo sapiens. As for the experimental part: as §1, §2, §3, §4
The subject of the next experiment is NCI-H23. The experiment in a line: Cell proliferation assay (GI50). Particulars: Homo sapiens. It counts as cell-based. The protocol:
as §1, §2, §3, §4

Experiment [5] deals with ZR-75-1. Nature of the experiment: Cell proliferation assay (GI50). Format: cell-based. The following applies: Homo sapiens, 48 h. As for the experimental part: as §1, §2, §3, §4

Usually GI50 stands for the concentration that inhibits growth by half. Read a high GI50 as lower sensitivity of the cells. Usually pEC50 stands for the EC50 on a negative log10 scale, so that one unit is a factor of ten. As a reminder, the pIC50 is −log10 of the IC50, conventionally taken in molar units. Consider `O=C(NNC(=O)c1cccnc1Oc1ccccc1)c1cccc(C(F)(F)F)c1` [Example 1, N′-(2-Phenoxypyridine-3-carbonyl)-3-(trifluoromethyl)benzhydrazide], for which the 50% growth inhibitory concentration (GI50) is 200 nM in the experiment on T-47D [1] (Homo sapiens, T47D); 400 nM in the experiment on MCF-7; 40 nM in the experiment on SK-Br-3; more than 10000 nM in the experiment with K562; more than 10000 nM in the experiment on PC-3; more than 10000 nM in the experiment on SW-620. The GI50 was 400 nM with MX-1, more than 10000 nM with Panc-1, more than 10000 nM in the experiment on NCI-H23 and 4500 nM in the experiment with ZR-75-1 [5]. Besides, the “Caspase activity Ratio” value in the experiment with T-47D [2] was found to be 11.6; in the experiment on ZR-75-1 [3], 1.8. The pEC50 with T-47D [2] is 6.33. Further, in the experiment on ZR-75-1 [3], the “Caspase potency EC50” value is recorded as “INACTIVE”. The pIC50 is approximately 5.98 in the experiment on T47D cells and approximately 6.22 in the experiment with MX-1 cells. Also, the “G2/M (M4) DNA content cells” value in the experiment on T-47D cells was “increase”. The “Selectivity of growth inhibition for breast cancer cells” value (shortened to “Selectivity of growth inhibition”) in experiment [4] is on record as “selectively inhibits the growth of breast cancer cells”.
As to `O=C(NNC(=O)c1cccnc1Oc1ccccc1)c1ccccc1O` [Example 8, N′-(2-Phenoxypyridine-3-carbonyl)-2-hydroxybenzhydrazide], the concentration for 50% growth inhibition (GI50) with T-47D [1] stood at 600 nM; in the experiment with T-47D [1] (Homo sapiens, T47D), 1000 nM; with MCF-7 it was 800 nM; with SK-Br-3, 300 nM; in the experiment with K562, 450 nM; with SW-620 it was 1000 nM. Also, the GI50 in the experiment with MX-1 worked out at 1000 nM; in the experiment with NCI-H23, 1000 nM; with ZR-75-1 [5], 300 nM. Also, the “Caspase activity Ratio” value in the experiment with T-47D [2] amounted to 7.3; in the experiment with ZR-75-1 [3], 5.6. The negative logarithm of the EC50 (pEC50) in the experiment on T-47D [2] was 6.13; in the experiment on ZR-75-1 [3] (Homo sapiens, read-out: Caspase potency EC50) it was 6.14. Moreover, the “Selectivity of growth inhibition” value in experiment [4] was “inhibiting the growth of both breast and non-breast cancer cells”.
With `O=C(NN=Cc1cccc(C(F)(F)F)c1)c1cccnc1Oc1ccccc1` [Example 15, 2-Phenoxypyridine-3-carboxylic acid (3-trifluoromethylbenzylidene)-hydrazide], the 50% growth inhibitory concentration (GI50) in the experiment with T-47D [1] is 80 nM; with T-47D [1] (Homo sapiens, T47D), 60 nM; with MCF-7, 250 nM; in the experiment on SK-Br-3, 20 nM; with SW-620, more than 10000 nM; in the experiment with MX-1, 400 nM. The figures for the GI50 with NCI-H23 and with ZR-75-1 [5] were more than 10000 nM and 2000 nM, respectively. Further, the “Selectivity of growth inhibition” value in experiment [4] was “selectively inhibits the growth of breast cancer cells”.
